Experimental data from patent publication US6358885B1, “Substituted phenylheterocyclic herbicides” (Mississippi State University, priority 1992, dated 2002).

Experiments:
bedstraw [1] = test: Test B preemergence/postemergence greenhouse plant response rating 0 to 10; format: in vivo, Galium aparine; details: for Plant response rating, Bedstraw: 0 to 10 scale
Procedure, shortened: (§1)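 Test chemicals were sprayed onto freshly planted seed and, concurrently, onto young plants between the one and four leaf stage. After a twelve- to sixteen-day greenhouse period, each species was visually compared with untreated controls.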

chickweed = test: as above; format: in vivo, Stellaria media; details: 0 to 10 scale
Procedure, shortened: as §1

corn [2] = test: as above; format: in vivo, Zea mays; details: for Plant response rating, Corn: 0 to 10 scale
Procedure, shortened: as §1

sugar beet = test: as above; format: in vivo, Beta vulgaris; details: 0 to 10 scale
Procedure, shortened: as §1

wild buckwheat = test: as above; format: in vivo, Polygonum convolvulus; details: 0 to 10 scale
Procedure, shortened: as §1

bedstraw [3] = test: Test C preemergence/postemergence greenhouse plant response rating 0 to 100; format: in vivo, Galium aparine; details: POSTEMERGENCE; for Plant response rating, Bedstraw: 0 to 100 scale
Source text: (§2) The compounds evaluated in this test were formulated in a non-phytoxic solvent and applied to the soil surface before plant seedlings emerged (preemergence application), to water that covered the soil surface (flood application), and to plants that were in the one-to-four leaf stage (postemergence application). A sandy loam soil was used for the preemergence and postemergence tests, while a silt loam soil was used in the flood test. Water depth was approximately 2.5 cm for the flood test and was maintained at this level for the duration of the test. Plant species in the preemergence and postemergence tests consisted of barley (Hordeum vulgare), bedstraw (Galium aparine), blackgrass (Alopecurus myosuroides), chickweed (Stellaria media), corn (Zea mays), cotton (Gossypium hirsutum), crabgrass (Digitaria sanguinalis), downy brome (Bromus tectorum), giant foxtail (Setaria faberii), lambsquarters (Chenopodium album), morningglory (Ipomoea hederacea), pigweed ([…]), rape (Brassica napus), ryegrass (Lolium multiflorum), sorghum (Sorghum bicolor), soybean (Glycine max), speedwell (Veronica persica), sugar beet (Beta vulgaris), velvetleaf (Abutilon theophrasti), wheat (Triticum aestivum), wild buckwheat (Polygonum convolvulus), and wild oat (Avena fatua). All plant species were planted one day before application of the compound for the preemergence portion-of this test. Plantings of these species were adjusted to produce plants of appropriate size for the post-emergence portion of the test. […] All plant species were grown using normal greenhouse practices. Visual evaluations of injury expressed on treated plants, when compared to untreated controls, were recorded approximately fourteen to twenty one days after application of the test compound. […] A dash (-) response means no test result.

corn [4] = test: as above; format: in vivo, Zea mays; details: POSTEMERGENCE; for Plant response rating, Corn: 0 to 100 scale
Source text: as §2

cotton = test: as above; format: in vivo, Gossypium hirsutum; details: POSTEMERGENCE; for Plant response rating, Cotton: 0 to 100 scale
Source text: as §2

downy brome = test: as above; format: in vivo, Bromus tectorum; details: POSTEMERGENCE; for Plant response rating Downy Brome: 0 to 100 scale
Source text: as §2

giant foxtail = test: as above; format: in vivo, Setaria faberii; details: POSTEMERGENCE; for Plant response rating, Giant foxtail: 0 to 100 scale
Source text: as §2

morningglory = test: as above; format: in vivo, Ipomoea hederacea; details: POSTEMERGENCE; for Plant response rating, Morningglory: 0 to 100 scale
Source text: as §2

sorghum = test: as above; format: in vivo, Sorghum bicolor; details: POSTEMERGENCE; for Plant response rating, Sorghum: 0 to 100 scale
Source text: as §2

velvetleaf = test: as above; format: in vivo, Abutilon theophrasti; details: POSTEMERGENCE; for Plant response rating, Velvetleaf: 0 to 100 scale
Source text: as §2

wheat = test: as above; format: in vivo, Triticum aestivum; details: POSTEMERGENCE; for Plant response rating, Wheat: 0 to 100 scale
Source text: as §2

wild oat = test: as above; format: in vivo, Avena fatua; details: POSTEMERGENCE; for Plant response rating, Wild oat: 0 to 100 scale
Source text: as §2

duck salad = test: Test C flood test plant response rating 0 to 100; format: in vivo, Heteranthera limosa; details: for Plant response rating Duck salad: flood test species listed under POSTEMERGENCE, 0 to 100 scale
Source text: as §2

barnyardgrass = test: Test C flood test plant response rating 0 to 100; format: in vivo, Echinochloa crus-galli; details: for Plant response rating (0 to 100), Barnyardgrass: under POSTEMERGENCE head (flood test species); for Plant response rating, Barnyardgrass: flood test species listed under POSTEMERGENCE, 0 to 100 scale
Source text: as §2

COc1cc(-c2nn3c(c2Cl)CCCC3)c(F)cc1Cl [Compound 29]
40: Plant response rating, Corn (corn [4]; 62 g/ha) | Plant response rating (0 to 100), Wild oat (wild oat; Rate 16 g/ha)
6: Plant response rating (0 to 10 scale), Corn (corn [2]; POSTEMERGENCE, Rate 50 g/ha) | Plant response rating, Corn (corn [2]; Rate 200 g/ha, PREEMERGENCE)
60: Plant response rating (0 to 100), Downy Brome (downy brome; Rate 16 g/ha) | Plant response rating, Wild oat (wild oat; 62 g/ha)
9: Plant response rating, Bedstraw (bedstraw [1]; Rate 200 g/ha, PREEMERGENCE)
20: Plant response rating (0 to 100), Corn (corn [4]; Rate 4 g/ha) | Plant response rating (0 to 100), Corn (corn [4]; Rate 16 g/ha) | Plant response rating (0 to 100), Downy Brome (downy brome; Rate 4 g/ha) | Plant response rating (0 to 100), Giant foxtail (giant foxtail; Rate 16 g/ha) | Plant response rating, Sorghum (sorghum; 62 g/ha) | Plant response rating (0 to 100), Wheat (wheat; Rate 4 g/ha) | Plant response rating (0 to 100), Wild oat (wild oat; Rate 4 g/ha) | Plant response rating (0 to 100), Duck salad (duck salad; POSTEMERGENCE section, flood test, Rate 4 g/ha)
7: Plant response rating (0 to 10 scale), Bedstraw (bedstraw [1]; POSTEMERGENCE, Rate 50 g/ha) | Plant response rating, Bedstraw (bedstraw [1]; PREEMERGENCE, Rate 50 g/ha) | Plant response rating, Chickweed (chickweed; Rate 200 g/ha, PREEMERGENCE) | Plant response rating, Corn (corn [2]; POSTEMERGENCE, Rate 200 g/ha) | Plant response rating, Sugar beet (sugar beet; PREEMERGENCE, Rate 50 g/ha)
80: Plant response rating Downy Brome (downy brome; 62 g/ha) | Plant response rating, Morningglory (morningglory; 62 g/ha) | Plant response rating (0 to 100), Morningglory (morningglory; Rate 16 g/ha) | Plant response rating, Wheat (wheat; 62 g/ha)
0: Plant response rating, Corn (corn [2]; PREEMERGENCE, Rate 50 g/ha) | Plant response rating (0 to 100), Giant foxtail (giant foxtail; Rate 4 g/ha) | Plant response rating (0 to 100), Sorghum (sorghum; Rate 4 g/ha) | Plant response rating (0 to 100), Sorghum (sorghum; Rate 16 g/ha)
8: Plant response rating, Chickweed (chickweed; POSTEMERGENCE, Rate 200 g/ha) | Plant response rating, Wild buckwheat (wild buckwheat; PREEMERGENCE, Rate 50 g/ha)
10: Plant response rating, Bedstraw (bedstraw [1]; POSTEMERGENCE, Rate 200 g/ha) | Plant response rating, Sugar beet (sugar beet; POSTEMERGENCE, Rate 50 g/ha) | Plant response rating, Sugar beet (sugar beet; Rate 200 g/ha, POSTEMERGENCE) | Plant response rating, Sugar beet (sugar beet; Rate 200 g/ha, PREEMERGENCE) | Plant response rating, Wild buckwheat (wild buckwheat; POSTEMERGENCE, Rate 50 g/ha) | Plant response rating, Wild buckwheat (wild buckwheat; Rate 200 g/ha, POSTEMERGENCE) | Plant response rating, Wild buckwheat (wild buckwheat; Rate 200 g/ha, PREEMERGENCE)
85: Plant response rating (0 to 100), Duck salad (duck salad; Rate 16 g/ha, under POSTEMERGENCE head (flood test species))
50: Plant response rating, Corn (corn [4]; 250 g/ha) | Plant response rating, Sorghum (sorghum; 250 g/ha) | Plant response rating (0 to 100), Velvetleaf (velvetleaf; Rate 4 g/ha)
30: Plant response rating (0 to 100), Wheat (wheat; Rate 16 g/ha)
90: Plant response rating (0 to 100), Bedstraw (bedstraw [3]; Rate 4 g/ha) | Plant response rating, Wild oat (wild oat; 250 g/ha)
3: Plant response rating, Chickweed (chickweed; PREEMERGENCE, Rate 50 g/ha)
95: Plant response rating Downy Brome (downy brome; 250 g/ha) | Plant response rating, Wheat (wheat; 250 g/ha) | Plant response rating Duck salad (duck salad; 62 g/ha)
70: Plant response rating, Giant foxtail (giant foxtail; 62 g/ha) | Plant response rating (0 to 100), Morningglory (morningglory; Rate 4 g/ha)
100: Plant response rating, Bedstraw (bedstraw [3]; 62 g/ha) | Plant response rating, Bedstraw (bedstraw [3]; 250 g/ha) | Plant response rating (0 to 100), Bedstraw (bedstraw [3]; Rate 16 g/ha) | Plant response rating, Cotton (cotton; 62 g/ha) | Plant response rating, Cotton (cotton; 250 g/ha) | Plant response rating (0 to 100), Cotton (cotton; Rate 4 g/ha) | Plant response rating (0 to 100), Cotton (cotton; Rate 16 g/ha) | Plant response rating, Giant foxtail (giant foxtail; 250 g/ha) | Plant response rating, Morningglory (morningglory; 250 g/ha) | Plant response rating, Velvetleaf (velvetleaf; 62 g/ha) | Plant response rating, Velvetleaf (velvetleaf; 250 g/ha) | Plant response rating (0 to 100), Velvetleaf (velvetleaf; Rate 16 g/ha) | Plant response rating Duck salad (duck salad; 250 g/ha) | Plant response rating (0 to 100), Barnyardgrass (barnyardgrass; Rate 4 g/ha) | Plant response rating (0 to 100), Barnyardgrass (barnyardgrass; Rate 16 g/ha) | Plant response rating, Barnyardgrass (barnyardgrass; 62 g/ha) | Plant response rating, Barnyardgrass (barnyardgrass; 250 g/ha)
